Tests used:
[1] = test system: ZR-75-1 human breast cancer xenografts; assay: Growth and response of human ZR-75-1 breast tumor xenografts in estrone-supplemented OVX nude mice, DHEA and/or EM-800 for 9.5 months (Example 1); format: in vivo; conditions: for Inhibition of estrone-stimulated ZR-75-1 tumor size / Category of response: Complete (%) / Category of response: Complete (Number) / Category of response: Partial (%) / Category of response: Partial (Number) / Category of response: Progression (%) / Category of response: Progression (Number) / Category of response: Stable (%) / Category of response: Stable (Number) / Average tumor weight at end of experiment: 9.5 months; for Category of response: Complete (%) / Category of response: Complete (Number) / Category of response: Partial (%) / Category of response: Partial (Number) / Category of response: Progression (%) / Category of response: Progression (Number) / Category of response: Stable (%) / Category of response: Stable (Number) / Average tumor weight at end of experiment: E1-supplemented
[2] = Uterine, vaginal and body weight in estrone-supplemented OVX nude mice (Example 1); format: in vivo
Protocol: DHEA was dissolved in 50% ethanol 50% propylene glycol. […] Tumors were measured once a week with Vernier calipers.

[3] = DHEA 0.3 mg, EM-800 15 μg, or EM-800 15 μg + DHEA 0.3 mg
[4] = DHEA 1.0 mg, EM-800 50 μg, or EM-800 15 μg + DHEA 1.0 mg
[5] = DHEA 3.0 mg, EM-800 100 μg, or EM-800 15 μg + DHEA 3.0 mg

## C[C@]12CC[C@H](O)CC1=CC[C@@H]1[C@@H]2CC[C@]2(C)C(=O)CC[C@@H]12 [DHEA, dehydroepiandrosterone]
[1]; daily DHEA 0.3 mg or EM-800 15 μg
  Inhibition of estrone-stimulated ZR-75-1 tumor size: 50.4%
[1]; daily DHEA 1.0 mg or EM-800 50 μg
  Inhibition of estrone-stimulated ZR-75-1 tumor size: 76.8%
[1]; daily DHEA 3.0 mg or EM-800 100 μg
  Inhibition of estrone-stimulated ZR-75-1 tumor size: 80.0%
[1]; DHEA 0.3 mg
  Inhibition of terminal tumor weight: 67%
[1]; DHEA 1.0 mg
  Inhibition of terminal tumor weight: 82%
[1]; DHEA 3.0 mg
  Inhibition of terminal tumor weight: 85%
[1]; [3]
  Category of response: Complete (%): 28.6%
  Category of response: Complete (Number): 4
  Category of response: Partial (%): 0 (0) %
  Category of response: Partial (Number): 0 (0)
  Category of response: Progression (%): 50.0%
  Category of response: Progression (Number): 7
  Category of response: Stable (%): 21.4%
  Category of response: Stable (Number): 3
[1]; [4]
  Category of response: Complete (%): 26.7%
  Category of response: Complete (Number): 4
  Category of response: Partial (%): 0 (0) %
  Category of response: Partial (Number): 0 (0)
  Category of response: Progression (%): 53.3%
  Category of response: Progression (Number): 8
  Category of response: Stable (%): 20.0%
  Category of response: Stable (Number): 3
[1]; [5]
  Category of response: Complete (%): 20.0%
  Category of response: Complete (Number): 3
  Category of response: Partial (%): 0 (0) %
  Category of response: Partial (Number): 0 (0)
  Category of response: Progression (%): 66.7%
  Category of response: Progression (Number): 10
  Category of response: Stable (%): 13.3%
  Category of response: Stable (Number): 2
[1]; daily DHEA 0.3 mg, EM-800 15 μg, or EM-800 15 μg + DHEA 0.3 mg
  Average tumor weight at end of experiment: 0.37 ± 0.12 g
[1]; daily DHEA 1.0 mg, EM-800 50 μg, or EM-800 15 μg + DHEA 1.0 mg
  Average tumor weight at end of experiment: 0.20 ± 0.06 g
[1]; daily DHEA 3.0 mg, EM-800 100 μg, or EM-800 15 μg + DHEA 3.0 mg
  Average tumor weight at end of experiment: 0.17 ± 0.06 g
[2]; 9.5 months
  effect on body weight adjusted for tumor weight: No significant effect
[2]; highest dose of DHEA used
  inhibition of the stimulatory effect of estrone on uterine weight: 26%
